Source: patent publication EP4574835A1, “AMORPHOUS FORM OF KETOAMIDE DERIVATIVE, AND PREPARATION METHOD THEREFOR” (Guangdong Raynovent Biotech Co., Ltd., priority 2022, dated 2024)

Assay: Pharmacokinetic model of mouse
Assay type: in vivo

O=C(NC1CCCC1)C(=O)[C@H](C[C@@H]1CCNC1=O)NC(=O)[C@@H]1[C@H]2CCC[C@H]2CN1C(=O)[C@@H](NC(=O)C(F)(F)F)C1CCCCC1 [Compound of Formula (I)]
clearance rate: lower | half-life: longer
